“Also recorded” adds a separate entry of the source. Where two headings read alike, the source gives them in different places.
What was measured:
[1] = system: quiescent high density non senescent cells (HD NsC); test: Cell survival EC50 of MDM2 inhibitors, quiescent high density non senescent cells; settings: read-out: Cell survival data EC50 HD NsC
Senescent cells (SnC) = test: Cell survival EC50 of MDM2 inhibitors, senescent cells; settings: for EC50: read-out: Cell survival data EC50 SnC
p16-3MR mice = test: Senescence induced by chemotherapeutic drugs in p16-3MR mice (luminescence, skin mRNA); format: in vivo, mouse; settings: for level of senescent cells (luminescence): p<0.05
Experimental: Paclitaxel induces senescence and SASP in p16-3MR transgenic mice. Groups of mice (n=4) were treated three times every two days with 20 mg/kg paclitaxel or vehicle. […] The level of mRNA in skin was determined for each of the target genes: p16, 3MR transgene, and IL-6.
To examine senescence induced by different chemotherapeutic drugs, groups of p16-3MR animals (n=4) were treated with thalidomide (100 mg/kg; 7 daily injections); romidepsin (1 mg/kg; 3 injections); pomalidomide (5 mg/kg; 7 daily injections); lenalidomide (50 mg/kg; 7 daily injections); 5-azacytidine (5 mg/kg; 3 injections) and compared with doxorubicin (10 mg/kg, 2-4 injections over 7 days).

[2] = system: senescent (irradiated) IMR90 cells; test: CellTiter-Glo cell viability assay, senescent IMR90; format: cell-based, human
Experimental: (§1) To determine whether ABT-263 is selectively toxic to senescent cells compared to non-senescent cells, a cell viability assay was used to assess cell survival following treatment with ABT-263. IMR90 cells (human primary lung fibroblasts (IMR90) (IMR-90 (ATCC® CCL-186™, Mannassas, Va.) were seeded in six well plates, and cells were induced to senescence with 10 Gy of ionizing radiation (IR) (Day 0). The media was refreshed every 3 days. The senescent phenotype is allowed to develop for 7 days at which point a cell count was made to determine the baseline number of cells followed by seeding into 96-well plates. On day 8, the senescent cells (irradiated) and the non-senescent cells (the non-radiated cells), were exposed to serial dilutions of ABT-263 for a period of 3 days. ABT-263 concentrations ranged from 0.5 nM to 3 μM. Each condition was seeded in triplicate.
(§2) After three days of treatment (Day 11), cells were assayed for cell survival using the commercially available CellTiter-Glo® (CTG) Luminescent Cell Viability Assay (Promega Corporation, Madison, Wis.). The assay determines the number of viable cells in culture based on the quantitation of ATP present which is an indicator of metabolically active cells.
(§3) The experiments performed for assessing the effect of these other Bcl-2 inhibitors were performed essentially as described in Example 7. Cells were exposed to ABT-199 at serial dilution concentrations ranging from 15 nM to 100 μM (FIGS. 26 and 27). Cells were exposed to Obatoclax at concentrations ranging from 1.4 nM to 9 μM (FIG. 28).
(§4) The effect of ABT-263 in combination with the Akt inhibitor MK-2206 was tested for selective toxicity of senescent cells compared to non-senescent cells in IMR90 cells. The methods of Example 7 were repeated except that cell cultures were exposed to 10 nM MK-2206 (Selleckem, Cat# S1078) in addition to serial dilutions of ABT-263.

[3] = system: non-senescent IMR90 cells; test: CellTiter-Glo cell viability assay, non-senescent IMR90; format: cell-based; settings: Homo sapiens, IMR-90, 72 h, IMR90, 3 days
Experimental: as §1, §2, §3, §4

Structure (SMILES) | EC50 [1] [µM] | EC50 dose ratio HD NsC/SnC (Senescent cells (SnC)) | EC50 (Senescent cells (SnC)) [µM] | further results
CCCCn1c(=O)[nH]c(O)c(C2NCCc3c2[nH]c2ccccc32)c1=O (centres unmarked) [MEL23, 3-Butyl-6-hydroxy-5-(2,3,4,9-tetrahydro-1H-pyrido[3,4-b]indol-1-yl)pyrimidine-2,4(1H,3H)-dione] | 20.9 | 5.2 | 4 | selectivity for senescent cells over quiescent cells (Senescent cells (SnC); listed as Me123): high specificity; also recorded: particularly high selectivity
COc1cc(C(=O)O)ccc1NC(=O)[C@@H]1N[C@@H](CC(C)(C)C)[C@](C#N)(c2ccc(Cl)cc2F)[C@H]1c1cccc(Cl)c1F [RG7388, 4-[[(2R,3S,4R,5S)-3-(3-chloro-2-fluorophenyl)-4-(4-chloro-2-fluorophenyl)-4-cyano-5-(2,2-dimethylpropyl)pyrrolidine-2-carbonyl]amino]-3-methoxybenzoic acid] | 31.5 | 1.0 | 32.8 | 
COc1cccc2c1C(=O)c1c(O)c3c(c(O)c1C2=O)C[C@@](O)(C(=O)CO)C[C@@H]3O[C@H]1C[C@H](N)[C@H](O)[C@H](C)O1 [doxorubicin] |  |  |  | level of senescent cells (luminescence) (p16-3MR mice): significant levels of senescent cells
c1ccc2c(CCNc3ccc(Nc4ccncc4)cc3)c[nH]c2c1 [JNJ 26854165, N1-(2-(1H-indol-3-yl)ethyl)-N4-(pyridin-4-yl)benzene-1,4-diamine] | 6.6 | 6.5 | 1 | selectivity for senescent cells over quiescent cells (Senescent cells (SnC)): high specificity; also recorded: particularly high selectivity
CC(C)[C@@H](CS(=O)(=O)C(C)C)N1C(=O)[C@@](C)(CC(=O)O)C[C@H](c2cccc(Cl)c2)[C@H]1c1ccc(Cl)cc1 [AMG-232, 2-((3R,5R,6S)-5-(3-chlorophenyl)-6-(4-chlorophenyl)-1-((S)-1-(isopropylsulfonyl)-3-methylbutan-2-yl)-3-methyl-2-oxopiperidin-3-yl)acetic acid] | 4.1 | 1.2 | 3.4 | 
O=C1c2c(c(-c3ccccc3)nn2Cc2ccc(F)cc2)C(c2ccc(Br)cc2)N1CCCn1ccnc1 (centres unmarked) [CAY10682, 4-(4-bromophenyl)-1-[(4-fluorophenyl)methyl]-4,5-dihydro-5-[3-(1H-imidazol-1-yl)propyl]-3-phenyl-pyrrolo[3,4-c]pyrazol-6(1H)-one] | 14.3 | 1.3 | 11.2 | 
Cn1c(=O)c([N+](=O)[O-])c(Cl)c2ccccc21 [ML214] |  |  |  | level of killing of senescent cells versus non-senescent cells ([2]; irradiated and non-senescent IMR90): comparable to the level of killing of non-senescent cells
CC1(C)CCC(CN2CCN(c3ccc(C(=O)NS(=O)(=O)c4ccc(NCC5CCOCC5)c([N+](=O)[O-])c4)c(Oc4cnc5[nH]ccc5c4)c3)CC2)=C(c2ccc(Cl)cc2)C1 [ABT-199, 4-[4-[[2-(4-Chlorophenyl)-4,4-dimethylcyclohex-1-en-1-yl]methyl]piperazin-1-yl]-N-[[3-nitro-4-[[(tetrahydro-2H-pyran-4-yl)methyl]amino]phenyl]sulfonyl]-2-[(1H-pyrrolo[2,3-b]pyridin-5-yl)oxy]benzamide] |  |  |  | IC50 ([2]; Homo sapiens, IMR-90, 72 h, IMR90, 3 days, read-out: IC50 in senescent cells): 6.9 to 12.4 µM; selective targeting of senescent cells over non-senescent cells ([2]; IMR90): inability; IC50 ([3]; CellTiter-Glo, read-out: IC50 on non-senescent cells): 6 to 15.8 µM
Nc1cccc2c1CN(C1CCC(=O)NC1=O)C2=O (centres unmarked) [lenalidomide] |  |  |  | level of senescent cells (luminescence) (p16-3MR mice): significant levels of senescent cells
O=C(/C=C/c1ccc(I)cc1)c1ccc(B(O)O)cc1 [Boronate, trans-4-Iodo, 4′-boranyl-chalcone] | 153 | 14.1 | 10.8 | selectivity for senescent cells over quiescent cells (Senescent cells (SnC)): particularly high selectivity; selectivity for senescent cells over quiescent cells (Senescent cells (SnC); listed as boronate): high specificity
OCc1ccc(-c2ccc(-c3ccc(CO)s3)o2)s1 [RITA, 5,5′-(2,5-Furandiyl)bis-2-thiophenemethanol] | 223 | 0.9 | 254 | 
COC1=CC(c2cc3ccccc3[nH]2)=N/C1=C\c1[nH]c(C)cc1C [Obatoclax] |  |  |  | IC50 ([3]; read-out: IC50 in non-senescent cells): 0.075 µM
CC(=O)O[C@H]1C(=O)[C@@]2(C)[C@H]([C@H](OC(=O)c3ccccc3)[C@]3(O)C[C@H](OC(=O)[C@H](O)[C@@H](NC(=O)c4ccccc4)c4ccccc4)C(C)=C1C3(C)C)[C@]1(OC(C)=O)CO[C@@H]1C[C@@H]2O [paclitaxel] |  |  |  | senescence shown by luminescence (p16-3MR mice; 20 mg/kg three times every two days): Senescence was observed; levels of mRNA for p16, 3MR and IL-6 in skin (p16-3MR mice; 20 mg/kg three times every two days, versus vehicle): increased
O=C1c2c(c(-c3ccccc3)nn2Cc2ccccc2)C(c2ccc(Br)cc2)N1CCCn1ccnc1 (centres unmarked) [CAY10681, 4-(4-bromophenyl)-4,5-dihydro-5-[3-(1H-imidazol-1-yl)propyl]-3-phenyl-1-(phenylmethyl)-pyrrolo[3,4-c]pyrazol-6(1H)-one] | 17.6 | 1.6 | 11 | 
Nc1cccc2c1C(=O)N(C1CCC(=O)NC1=O)C2=O (centres unmarked) [omalidomide] |  |  |  | level of senescent cells (luminescence) (p16-3MR mice): significant levels of senescent cells

Reference: US20190022225A1, “PROTOCOL FOR INCREASING LIFE EXPECTANCY IN A TEST SUBJECT” (Mayo Foundation for Medical Education and Research, priority 2015, published 2019)
